Patent US20070276025A1, “Indirubin-Type Compounds, Compositions, and Methods for Their Use” (priority 2003, published 2007)
pEC50, pIC50: −log10 of the molar value. Like-named read-outs stand apart in the source and are kept apart here.

Key:
[1] = biological target: T1, AhR (Mus musculus, UniProt P30561); details: read-out: EC50 AhR (hepatoma cell line); Table 4; EGFP at 24 hours
T1 sequence (P30561 1-848): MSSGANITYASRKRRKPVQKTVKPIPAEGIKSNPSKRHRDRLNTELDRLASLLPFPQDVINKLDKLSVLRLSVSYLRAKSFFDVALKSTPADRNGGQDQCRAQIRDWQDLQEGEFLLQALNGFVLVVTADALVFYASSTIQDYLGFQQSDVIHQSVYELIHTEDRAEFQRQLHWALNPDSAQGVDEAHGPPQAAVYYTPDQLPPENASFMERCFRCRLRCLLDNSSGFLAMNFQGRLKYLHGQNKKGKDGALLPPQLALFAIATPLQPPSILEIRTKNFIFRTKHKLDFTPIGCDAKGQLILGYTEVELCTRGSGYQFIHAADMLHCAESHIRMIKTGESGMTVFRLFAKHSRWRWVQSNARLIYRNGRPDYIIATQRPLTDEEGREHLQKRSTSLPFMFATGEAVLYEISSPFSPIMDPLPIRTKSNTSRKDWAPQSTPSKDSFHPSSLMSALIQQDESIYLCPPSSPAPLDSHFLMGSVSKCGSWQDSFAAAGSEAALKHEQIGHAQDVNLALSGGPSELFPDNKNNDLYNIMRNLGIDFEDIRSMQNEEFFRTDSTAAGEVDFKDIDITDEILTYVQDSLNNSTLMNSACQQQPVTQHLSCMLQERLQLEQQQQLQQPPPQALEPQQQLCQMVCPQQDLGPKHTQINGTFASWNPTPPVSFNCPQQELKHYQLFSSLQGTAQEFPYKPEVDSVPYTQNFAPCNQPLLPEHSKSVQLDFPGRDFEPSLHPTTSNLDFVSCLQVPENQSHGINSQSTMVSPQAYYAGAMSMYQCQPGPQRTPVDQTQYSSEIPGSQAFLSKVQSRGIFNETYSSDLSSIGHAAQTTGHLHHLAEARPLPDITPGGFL

[2] = Solubility (qualitative remark); details: relative to parent indirubins / 3′-oximes
[3] = biological target: CDK1/cyclin B; experiment: CDK1/cyclin B kinase assay (histone H1, 15 μM ATP); format: biochemical, starfish (Marthasterias glacialis)
[4] = biological target: erk1 (Homo sapiens, UniProt P27361); experiment: erk1 kinase assay; details: read-out: IC50 erk1; Table 2, 15 μM ATP
erk1, sequence (P27361 whole entry, species assumed): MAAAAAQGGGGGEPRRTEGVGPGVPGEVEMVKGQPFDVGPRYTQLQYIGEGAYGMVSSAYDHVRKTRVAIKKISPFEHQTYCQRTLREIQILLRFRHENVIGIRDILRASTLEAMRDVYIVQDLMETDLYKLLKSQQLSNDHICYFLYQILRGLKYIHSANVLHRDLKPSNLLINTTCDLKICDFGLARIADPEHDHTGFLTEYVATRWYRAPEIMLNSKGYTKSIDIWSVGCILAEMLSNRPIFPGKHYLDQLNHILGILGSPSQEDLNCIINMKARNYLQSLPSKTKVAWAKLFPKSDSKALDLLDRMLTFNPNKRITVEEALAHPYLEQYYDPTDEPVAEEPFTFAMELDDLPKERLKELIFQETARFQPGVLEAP

[5] = biological target: MAPKK; experiment: MAPKK kinase assay; details: read-out: IC50 MAPKK; Table 2, 15 μM ATP
[6] = biological target: casein kinase 2; experiment: casein kinase 2 assay; details: read-out: IC50 casein kinase 2; Table 2, 15 μM ATP
[7] = test system: cGMP-dependent PK; experiment: cGMP-dependent PK assay; details: read-out: IC50 cGMP-dependent PK; Table 2, 15 μM ATP
[8] = biological target: T2, protein kinase C ε (Homo sapiens, UniProt Q02156); experiment: protein kinase C ε assay; details: read-out: IC50 protein kinase C ε; Table 2, 15 μM ATP
T2 sequence (Q02156 1-737): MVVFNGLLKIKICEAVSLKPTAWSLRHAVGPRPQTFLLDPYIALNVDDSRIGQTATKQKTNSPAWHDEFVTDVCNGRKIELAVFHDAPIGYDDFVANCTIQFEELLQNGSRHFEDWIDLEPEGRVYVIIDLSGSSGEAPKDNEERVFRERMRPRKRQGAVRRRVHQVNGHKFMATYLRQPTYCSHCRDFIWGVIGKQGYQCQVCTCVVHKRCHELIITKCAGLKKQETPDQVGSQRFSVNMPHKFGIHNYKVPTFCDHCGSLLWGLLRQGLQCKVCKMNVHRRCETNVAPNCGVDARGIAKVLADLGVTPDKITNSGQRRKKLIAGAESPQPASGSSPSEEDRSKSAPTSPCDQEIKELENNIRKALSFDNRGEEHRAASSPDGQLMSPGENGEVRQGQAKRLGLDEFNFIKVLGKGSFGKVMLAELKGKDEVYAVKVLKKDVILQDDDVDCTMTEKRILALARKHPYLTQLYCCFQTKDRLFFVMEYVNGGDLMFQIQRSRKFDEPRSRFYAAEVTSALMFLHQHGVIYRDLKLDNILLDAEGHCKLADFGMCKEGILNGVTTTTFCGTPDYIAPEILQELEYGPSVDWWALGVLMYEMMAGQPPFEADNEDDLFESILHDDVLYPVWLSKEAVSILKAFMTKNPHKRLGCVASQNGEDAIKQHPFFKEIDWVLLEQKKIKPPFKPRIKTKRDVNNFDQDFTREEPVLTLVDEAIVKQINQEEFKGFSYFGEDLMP

[9] = biological target: T3, protein kinase C ζ (Homo sapiens, UniProt Q05513); experiment: protein kinase C ζ assay; details: read-out: IC50 protein kinase C ζ; Table 2, 15 μM ATP
T3 sequence (Q05513 1-592): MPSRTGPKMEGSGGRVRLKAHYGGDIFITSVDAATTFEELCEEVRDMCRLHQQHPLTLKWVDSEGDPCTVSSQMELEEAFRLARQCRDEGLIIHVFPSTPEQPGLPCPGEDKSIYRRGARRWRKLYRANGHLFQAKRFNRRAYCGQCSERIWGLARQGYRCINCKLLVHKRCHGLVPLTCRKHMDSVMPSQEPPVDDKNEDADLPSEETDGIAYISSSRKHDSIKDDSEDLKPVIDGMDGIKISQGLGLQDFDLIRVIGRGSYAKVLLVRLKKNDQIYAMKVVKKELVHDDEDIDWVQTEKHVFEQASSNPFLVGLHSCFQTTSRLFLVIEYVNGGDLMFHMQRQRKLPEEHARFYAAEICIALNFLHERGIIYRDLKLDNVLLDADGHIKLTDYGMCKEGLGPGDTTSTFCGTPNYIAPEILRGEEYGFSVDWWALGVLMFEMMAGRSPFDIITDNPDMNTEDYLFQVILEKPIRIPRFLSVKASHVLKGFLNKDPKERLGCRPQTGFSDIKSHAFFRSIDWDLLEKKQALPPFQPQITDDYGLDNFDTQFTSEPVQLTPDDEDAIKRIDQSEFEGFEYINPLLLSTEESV

[10] = biological target: protein kinase C β2 (Homo sapiens, UniProt P05771); experiment: protein kinase C β2 assay; details: read-out: IC50 protein kinase C β2; Table 2, 15 μM ATP
protein kinase C β2, sequence (P05771 1-673 isoform P05771-2): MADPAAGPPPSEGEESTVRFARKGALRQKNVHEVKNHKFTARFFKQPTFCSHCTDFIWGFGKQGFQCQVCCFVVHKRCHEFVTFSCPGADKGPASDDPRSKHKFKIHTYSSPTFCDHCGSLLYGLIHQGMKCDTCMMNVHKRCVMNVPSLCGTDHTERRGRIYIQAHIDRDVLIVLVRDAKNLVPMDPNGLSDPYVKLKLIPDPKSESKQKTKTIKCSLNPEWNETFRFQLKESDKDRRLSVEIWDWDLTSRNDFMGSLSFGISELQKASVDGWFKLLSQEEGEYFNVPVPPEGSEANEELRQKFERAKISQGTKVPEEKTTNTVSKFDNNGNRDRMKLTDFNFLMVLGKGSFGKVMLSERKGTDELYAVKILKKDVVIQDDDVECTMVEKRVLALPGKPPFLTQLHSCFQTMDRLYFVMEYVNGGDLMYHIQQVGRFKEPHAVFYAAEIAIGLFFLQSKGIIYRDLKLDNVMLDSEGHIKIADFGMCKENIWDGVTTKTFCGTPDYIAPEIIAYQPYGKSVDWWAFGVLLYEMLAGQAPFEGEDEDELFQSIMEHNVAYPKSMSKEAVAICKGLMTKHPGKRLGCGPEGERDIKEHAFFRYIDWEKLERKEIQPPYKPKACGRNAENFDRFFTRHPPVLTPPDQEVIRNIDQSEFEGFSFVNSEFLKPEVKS

[11] = Table 1, read-out: IC50 CDK1/cyclin B
[12] = Table 2, 15 μM ATP, read-out: IC50 CDK1/cyclin B
[13] = Table 4, read-out: IC50 CDK1/cycin B
[14] = Table 5, read-out: IC50 CDK1/cyclin B

Compound | pEC50 [1] | solubility (in words) [2] | pIC50 [3, 11] | pIC50 [3, 12] | pIC50 [3, 13] | pIC50 [3, 14] | pIC50 [4] | pIC50 [5] | pIC50 [6] | pIC50 [7] | pIC50 [8] | pIC50 [9] | pIC50 [10]
O=C1Nc2ccccc2/C1=C1/Nc2ccccc2/C1=N\O [7h, indirubin-3′-oxime] | 6.14 | increased solubility | – | – | – | – | – | – | – | – | – | – | –
CC(=O)ON=C1C(=C2C(=O)Nc3cc(Br)ccc32)Nc2ccccc21 [8a, 6-Bromoindirubin-3′-acetoxime] | 6.80 | less soluble | 4.20 | 4.20 | 4.20 | 4.20 | < 5.00 | < 5.00 | < 5.00 | < 5.00 | < 5.00 | < 5.00 | < 5.00
CON=C1C(=C2C(=O)Nc3cc(Br)ccc32)Nc2ccccc21 [9a, 6-Bromoindirubin-3′-methoxime] | 7.52 | less soluble | 5.47 | 5.47 | 5.47 | 5.43 | < 5.00 | < 5.00 | 5.05 | < 5.00 | < 5.00 | < 5.00 | < 5.00
